{
  "source": "paper PMC9520948",
  "about": "“Moonlighting glyceraldehyde-3-phosphate dehydrogenase (GAPDH) protein of Lactobacillus gasseri attenuates allergic asthma via immunometabolic change in macrophages” (Journal of Biomedical Science, 2022)",
  "key": {"human plasminogen": {"target": "T1, human plasminogen (Homo sapiens, UniProt P00747)", "T1 construct": "gene PLG; commercial (BioVision), 1 microgram coated on polystyrene plate", "T1 sequence (P00747 20-810)": "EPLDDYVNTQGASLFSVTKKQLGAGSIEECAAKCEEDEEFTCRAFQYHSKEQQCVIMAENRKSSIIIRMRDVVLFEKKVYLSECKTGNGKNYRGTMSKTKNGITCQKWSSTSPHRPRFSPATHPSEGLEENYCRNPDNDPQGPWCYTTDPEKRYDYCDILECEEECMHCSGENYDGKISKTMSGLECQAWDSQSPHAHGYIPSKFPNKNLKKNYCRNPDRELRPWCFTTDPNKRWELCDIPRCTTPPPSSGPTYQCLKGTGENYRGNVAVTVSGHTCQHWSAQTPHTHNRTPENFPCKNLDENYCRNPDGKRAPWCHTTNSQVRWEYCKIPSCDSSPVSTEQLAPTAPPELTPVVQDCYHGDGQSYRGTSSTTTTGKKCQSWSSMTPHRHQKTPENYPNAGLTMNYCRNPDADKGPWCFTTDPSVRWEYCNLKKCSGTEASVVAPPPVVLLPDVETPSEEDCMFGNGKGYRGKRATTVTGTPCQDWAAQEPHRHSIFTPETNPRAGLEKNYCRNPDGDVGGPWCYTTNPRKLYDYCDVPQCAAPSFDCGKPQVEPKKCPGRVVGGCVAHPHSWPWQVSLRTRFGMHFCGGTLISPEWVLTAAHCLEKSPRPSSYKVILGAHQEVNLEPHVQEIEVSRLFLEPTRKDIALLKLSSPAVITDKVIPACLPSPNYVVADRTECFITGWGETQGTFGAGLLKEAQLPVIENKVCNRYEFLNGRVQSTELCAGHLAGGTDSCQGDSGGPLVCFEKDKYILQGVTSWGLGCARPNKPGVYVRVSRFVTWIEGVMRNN", "assay": "competitive solid-phase binding assay (ELISA), displacement of GAPDH", "conditions": "competition with 125 ng His-tagged bacterial GAPDH; EACA 1.25 to 10 mM; lysine analog"}, "[1]": {"target": "T2, LGp40 (GAPDH of L. gasseri) (Lactobacillus gasseri, UniProt A0A1V3Y2M1)", "T2 construct": "gene gap; His6-tagged, pET21b, E. coli BL21(DE3), Ni-NTA then Q column; 37 kDa; tetramer through crystal symmetry", "assay": "X-ray crystallography, […] A", "conditions": "NAD-binding site, Asp38 hydrogen bonds; crystals at pH 6.5"}, "[2]": {"target": "LGp40, His-tagged recombinant glyceraldehyde-3-phosphate dehydrogenase (GAPDH) of Lactobacillus gasseri (Lactobacillus gasseri (BCRC14619))", "assay": "crystal structure; X-ray, 1.88 A, space group I4(1)22; one LGp40 copy in the asymmetric unit, tetramer through crystal symmetry; crystals from 0.1 M sodium cacodylate pH 6.5, 16% w/v PEG 4000, 25 C"}},
  "data": [
    {"compound": "NCCCCCC(=O)O", "note": "[EACA]", "values": [
      {"measurement": "competitive solid-phase binding assay (ELISA), displacement of GAPDH", "setting": "human plasminogen", "result": "a competitive binding assay using EACA, a lysine analog"}
    ]},
    {"compound": "NC(=O)c1ccc[n+]([C@@H]2O[C@H](COP(=O)(O)OP(=O)(O)OC[C@H]3O[C@@H](n4cnc5c(N)ncnc54)[C@H](O)[C@@H]3O)[C@@H](O)[C@H]2O)c1", "note": "[NAD^+]", "values": [
      {"measurement": "X-ray crystallography, 1.88 A", "setting": "[1]", "result": "contributes two hydrogen-bond interactions with NAD^+ to provide stronger binding forces"}
    ]},
    {"compound": "LGp40, His-tagged recombinant glyceraldehyde-3-phosphate dehydrogenase (GAPDH) of Lactobacillus gasseri (enzyme)", "values": [
      {"measurement": "stoichiometry N", "setting": "[2]", "result": 4}
    ]}
  ]
}
